Laboratory results from patent publication US20250092002A1, “FLUORINATED CATIONIC LIPIDS FOR USE IN LIPID NANOPARTICLES” (Acuitas Therapeutics, Inc., priority 2021, published 2025).
Marks after values point to notes of the source that are not given here.

How the values were obtained:
[1] = Determination of pKa of formulated lipids (TNS fluorescence assay in lipid nanoparticles); format: physicochemical; details: probe 2-(p-toluidino)-6-napthalene sulfonic acid (TNS), 1 µM final, cationic lipid formulated in lipid nanoparticles (cationic lipid/DSPC/cholesterol/PEG-lipid 47.5/10/40.7/1.8 mol %), read-out: pKa
Method: As described elsewhere, the pKa of formulated cationic lipids is correlated with the effectiveness of LNPs for delivery of nucleic acids (see Jayaraman et al, Angewandte Chemie, International Edition (2012), 51(34), 8529-8533; Semple et al, Nature Biotechnology 28, 172-176 (2010)). The preferred range of pKa is ˜5 to ˜7. The pKa of each cationic lipid was determined in lipid nanoparticles using an assay based on fluorescence of 2-(p-toluidino)-6-napthalene sulfonic acid (TNS). Lipid nanoparticles comprising cationic lipid/DSPC/cholesterol/PEG-lipid (47.5/10/40.7/1.8 mol %) in PBS at a concentration of 0.4 mM total lipid were prepared using the in-line process as described in Example 1. TNS was prepared as a 100 μM stock solution in distilled water. Vesicles were diluted to 24 μM lipid in 2 mL of buffered solutions containing, 10 mM HEPES, 10 mM MES, 10 mM ammonium acetate, 130 mM NaCl, where the pH ranged from 2.5 to 11. An aliquot of the TNS solution was added to give a final concentration of 1 μM and following vortex mixing fluorescence intensity was measured at room temperature in a SLM Aminco Series 2 Luminescence Spectrophotometer using excitation and emission wavelengths of 321 nm and 445 nm. A sigmoidal best fit analysis was applied to the fluorescence data and the pKa was measured as the pH giving rise to half-maximal fluorescence intensity.

[2] = tested on: luciferase expression in the liver; experiment: In vivo luciferase mRNA expression rodent model (liver luciferase after tail vein injection of mRNA-LNP); parameters: species or system mice; details: for Liver Luc (ng luc/g liver), determined at 0.3 mg/kg: 0.3 mg/kg (footnote *); for Liver Luc (ng luc/g liver), determined at 0.3 mg/kg / Liver Luc (ng luc/g liver), determined at 1.0 mg/kg / Liver Luc @ 0.5 mg/kg (ng luc/g liver): tail vein injection, liver 4 hours after administration; for efficacy toward activation of the Luciferase mRNA expression as compared with non-fluorinated analogue: 0.3 mg/kg and 1.0 mg/kg, versus I-5 analogue and I-11 analogue respectively; for Liver Luc @ 0.5 mg/kg (ng luc/g liver): 0.5 mg mRNA/kg
Method: Lipid nanoparticles were prepared and tested according to the general procedures described in PCT Pub. Nos. WO 2015/199952 and WO 2017/004143, the full disclosures of which are incorporated herein by reference. Briefly, cationic lipid, DSPC, cholesterol and PEG-lipid were solubilized in ethanol at a molar ratio of about 50:10:38.5:1.5 or about 47.5:10:40.7:1.8. Lipid nanoparticles (LNP) were prepared at a total lipid to mRNA weight ratio of approximately 10:1 to 40:1. The mRNA is diluted to 0.2 mg/mL in 10 to 50 mM citrate or acetate buffer, pH 4. Syringe pumps were used to mix the ethanolic lipid solution with the mRNA aqueous solution at a ratio of about 1:5 to 1:3 (vol/vol) with total flow rates above 15 mL/min. The ethanol was then removed and the external buffer replaced with PBS by dialysis. Finally, the lipid nanoparticles were filtered through a 0.2 µm pore sterile filter. Lipid nanoparticle particle size was approximately 55-95 nm diameter, and in some instances approximately 70-90 nm diameter as determined by quasi-elastic light scattering using a Malvern Zetasizer Nano ZS (Malvern, UK).
Studies were performed in 6-8 week old female C57BL/6 mice (Charles River) or 8-10 week old CD-1 (Harlan) mice (Charles River) according to guidelines established by an institutional animal care committee (ACC) and the Canadian Council on Animal Care (CCAC). Varying doses of mRNA-lipid nanoparticle were systemically administered by tail vein injection and animals euthanized at a specific time point (e.g., 4 hours) post-administration. Liver and spleen were collected in pre-weighed tubes, weights determined, immediately snap frozen in liquid nitrogen and stored at −80° C. until processing for analysis.
For liver, approximately 50 mg was dissected for analyses in a 2 mL FastPrep tubes (MP Biomedicals, Solon OH). ¼″ ceramic sphere (MP Biomedicals) is added to each tube and 500 μL of Glo Lysis Buffer—GLB (Promega, Madison WI) equilibrated to room temperature is added to liver tissue. Liver tissues were homogenized with the FastPrep24 instrument (MP Biomedicals) at 2×6.0 m/s for 15 seconds. Homogenate was incubated at room temperature for 5 minutes prior to a 1:4 dilution in GLB and assessed using SteadyGlo Luciferase assay system (Promega). Specifically, 50 μL of diluted tissue homogenate was reacted with 50 μL of SteadyGlo substrate, shaken for 10 seconds followed by 5 minute incubation and then quantitated using a CentroXS^3 LB 960 luminometer (Berthold Technologies, Germany). The amount of protein assayed was determined by using the BCA protein assay kit (Pierce, Rockford IL). Relative luminescence units (RLU) were then normalized to total μg protein assayed. To convert RLU to ng luciferase a standard curve was generated with QuantiLum Recombinant Luciferase (Promega).
The FLuc mRNA (L-6107 or L-7202) from Trilink Biotechnologies will express a luciferase protein, originally isolated from the firefly, Photimus pyralis. FLuc is commonly used in mammalian cell culture to measure both gene expression and cell viability. It emits bioluminescence in the presence of the substrate, luciferin. This capped and poly-adenylated mRNA was fully substituted with respect to uridine and/or cytidine nucleosides.
Representative compounds of the disclosure shown in Table 2 were formulated using the following molar ratio: 50% cationic lipid/10% distearoylphosphatidylcholine (DSPC)/38.5% Cholesterol/1.5% PEG lipid 2-[2-(ω-methoxy(polyethyleneglycol2000)ethoxy]-N,N-ditetradecylacetamide) or 47.5% cationic lipid/10% DSPC/40.7% Cholesterol/1.8% PEG lipid. Relative activity was determined by measuring luciferase expression in the liver 4 hours following administration via tail vein injection as described in Example 1. The activity was compared at a dose of 1.0 or 0.5 or 0.3 mg mRNA/kg and expressed as ng luciferase/g liver measured 4 hours after administration, as described in Example 1. Compound numbers in Table 2 refer to the compound numbers of Table 1. […]

pKa [1]	SMILES	Liver Luc (ng luc/g liver), determined at 0.3 mg/kg [2]	efficacy toward activation of the Luciferase mRNA expression as compared with non-fluorinated analogue [2]	Liver Luc (ng luc/g liver), determined at 1.0 mg/kg [2] [ng luc/g liver]	Liver Luc @ 0.5 mg/kg (ng luc/g liver) [2] [ng luc/g liver]
6.22	CCCCCCCCC(CCCCCC)COC(=O)CCCCCC(CCCCCC(=O)OCC(CCCCCC)CCCCCCCC)N(CCCN(C)C)C(=O)CC(F)(F)F (centres unmarked) [Compound I-12, BIS(2-HEXYLDECYL) 7-(N-(3-(DIMETHYLAMINO)PROPYL)-3,3,3-TRIFLUOROPROPANAMIDO)TRIDECANEDIOATE]	138 ± 64* ng luc/g liver		559 ± 207	
6.68	CCCCCCCCC(CCCCCC)COC(=O)CCCCCC(CCCCCC(=O)OCC(CCCCCC)CCCCCCCC)N(CCCN(C)C)C(=O)CCCC(F)(F)F (centres unmarked) [Compound I-13, BIS(2-HEXYLDECYL) 7-(N-(3-(DIMETHYLAMINO)PROPYL)-5,5,5-TRIFLUOROPENTANAMIDO)TRIDECANEDIOATE]				658 ± 262
6.28	CCCCCCCCC(CCCCCC)COC(=O)CCCCCCCCC(CCCCCCCCC(=O)OCC(CCCCCC)CCCCCCCC)N(CCCN(C)C)C(=O)CCCC(F)(F)F (centres unmarked) [Compound I-14, BIS(2-HEXYLDECYL) 10-(N-(3-(DIMETHYLAMINO)PROPYL)-5,5,5-TRIFLUOROPENTANAMIDO)NONADECANEDIOATE]				331 ± 127
6.78	CCCCCCC(CCCC)COC(=O)CCCCCC(CCCCCC(=O)OCC(CCCC)CCCCCC)N(CCCN(C)C)C(=O)CCCC(F)(F)F (centres unmarked) [Compound I-15, BIS(2-BUTYLOCTYL) 7-(N-(3-(DIMETHYLAMINO)PROPYL)-5,5,5-TRIFLUOROPENTANAMIDO)TRIDECANEDIOATE]				1007 ± 671
5.97	CCCCCCC(CCCC)COC(=O)CCCCCC(CCCCCC(=O)OCC(CCCC)CCCCCC)N(CCN(C)C)C(=O)CCCC(F)(F)F (centres unmarked) [Compound I-16, BIS(2-BUTYLOCTYL) 7-(N-(2-(DIMETHYLAMINO)ETHYL)-5,5,5-TRIFLUOROPENTANAMIDO)TRIDECANEDIOATE]				1233 ± 305
5.96	CCCCCCCC(F)C(=O)N(CCCN1CCCC1)C(CCCCCCCCC(=O)OCC(CCCC)CCCCCC)CCCCCCCCC(=O)OCC(CCCC)CCCCCC (centres unmarked) [Compound I-22, BIS(2-BUTYLOCTYL) 10-(2-FLUORO-N-(3-(PYRROLIDIN-1-YL)PROPYL)NONANAMIDO)NONADECANEDIOATE]	10062 ± 2580 ng luc/g liver		82847 ± 27713	
6.04	CCCCCCCCCCN(C(=O)C(F)CCCN(C)C)C(CCCCCCCCC(=O)OCC(CCCC)CCCCCC)CCCCCCCCC(=O)OCC(CCCC)CCCCCC (centres unmarked) [Compound I-24, BIS(2-BUTYLOCTYL) 10-(N-DECYL-5-(DIMETHYLAMINO)-2-FLUOROPENTANAMIDO)NONADECANEDIOATE]	9411 ± 1733 ng luc/g liver			

SMILES	pKa [1]	Liver Luc (ng luc/g liver), determined at 0.3 mg/kg [2]	efficacy toward activation of the Luciferase mRNA expression as compared with non-fluorinated analogue [2]	Liver Luc (ng luc/g liver), determined at 1.0 mg/kg [2] [ng luc/g liver]	Liver Luc @ 0.5 mg/kg (ng luc/g liver) [2] [ng luc/g liver]
CCCCC(CC)COC(=O)CCCCCCCCC(CCCCCCCCC(=O)OCC(CC)CCCC)N(CCCCN(C)C)C(=O)C(F)(F)C(F)(F)C(F)(F)C(F)(F)C(F)(F)C(F)(F)C(F)(F)F (centres unmarked) [Compound I-5, BIS(2-ETHYLHEXYL) 10-(N-(4-(DIMETHYLAMINO)BUTYL)-2,2,3,3,4,4,5,5,6,6,7,7,8,8,8-PENTADECAFLUOROOCTANAMIDO)NONADECANEDIOATE]	5.92	3645 ± 1347 ng luc/g liver	increased efficacy	21585 ± 6204	
CCCCCCCCC(CCCCCC)COC(=O)CCCCCC(CCCCCC(=O)OCC(CCCCCC)CCCCCCCC)N(CCCCN(C)C)C(=O)C(F)(F)C(F)(F)C(F)(F)C(F)(F)C(F)(F)C(F)(F)C(F)(F)F (centres unmarked) [Compound I-7, BIS(2-HEXYLDECYL) 7-(N-(4-(DIMETHYLAMINO)BUTYL)-2,2,3,3,4,4,5,5,6,6,7,7,8,8,8-PENTADECAFLUOROOCTANAMIDO)TRIDECANEDIOATE]	6.08				39 ± 14
CCCCCCCCC(CCCCCC)COC(=O)CCCCCC(CCCCCC(=O)OCC(CCCCCC)CCCCCCCC)N(CCN1CCN(C)CC1)C(=O)C(F)(F)C(F)(F)C(F)(F)C(F)(F)C(F)(F)C(F)(F)C(F)(F)F (centres unmarked) [Compound I-8, BIS(2-HEXYLDECYL) 7-(2,2,3,3,4,4,5,5,6,6,7,7,8,8,8-PENTADECAFLUORO-N-(2-(4-METHYLPIPERAZIN-1-YL)ETHYL)OCTANAMIDO)TRIDECANEDIOATE]	5.58				0
CCCCCCCCC(CCCCCC)COC(=O)CCCCCC(CCCCCC(=O)OCC(CCCCCC)CCCCCCCC)N(CCCCCN(C)C)C(=O)C(F)(F)C(F)(F)C(F)(F)C(F)(F)C(F)(F)C(F)(F)C(F)(F)F (centres unmarked) [Compound I-9, BIS(2-HEXYLDECYL) 7-(N-(5-(DIMETHYLAMINO)PENTYL)-2,2,3,3,4,4,5,5,6,6,7,7,8,8,8-PENTADECAFLUOROOCTANAMIDO)TRIDECANEDIOATE]	6.32				25 ± 16
CCCCCCC(CCCC)COC(=O)CCCCCC(CCCCCC(=O)OCC(CCCC)CCCCCC)N(CCCCN(C)C)C(=O)C(F)(F)C(F)(F)C(F)(F)C(F)(F)C(F)(F)C(F)(F)C(F)(F)F (centres unmarked) [Compound I-10, BIS(2-BUTYLOCTYL) 7-(N-(4-(DIMETHYLAMINO)BUTYL)-2,2,3,3,4,4,5,5,6,6,7,7,8,8,8-PENTADECAFLUOROOCTANAMIDO)TRIDECANEDIOATE]	6.18				62 ± 44
CCCCCCC(CCCC)COC(=O)CCCCCC(CCCCCC(=O)OCC(CCCC)CCCCCC)N(CCCCCN(C)C)C(=O)C(F)(F)C(F)(F)C(F)(F)C(F)(F)C(F)(F)C(F)(F)C(F)(F)F (centres unmarked) [Compound I-11, BIS(2-BUTYLOCTYL) 7-(N-(5-(DIMETHYLAMINO)PENTYL)-2,2,3,3,4,4,5,5,6,6,7,7,8,8,8-PENTADECAFLUOROOCTANAMIDO)TRIDECANEDIOATE]	6.28	3411 ± 803* ng luc/g liver	increased efficacy	45575 ± 11088	
